Where two headings read alike, the source gives them in different places.
Assays:
SENP1 [1] = molecular target: T1, SENP1 (Homo sapiens, UniProt Q9P0U3); assay: Fluorogenic SENP1 assay, SUMO1-AMC substrate; type: biochemical
T1 construct: Human recombinant, His6-SENP1 Catalytic Domain; His6 (N); purchased Boston Biochem (Bio-Techne AG) E-700
T1 sequence (Q9P0U3 450-613 limits assumed): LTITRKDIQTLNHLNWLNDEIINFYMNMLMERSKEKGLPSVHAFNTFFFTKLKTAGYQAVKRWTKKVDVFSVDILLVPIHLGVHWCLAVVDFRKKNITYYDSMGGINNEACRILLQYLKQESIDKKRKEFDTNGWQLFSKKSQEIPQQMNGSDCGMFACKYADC
Experimental: Human recombinant, His6-SENP1 Catalytic Domain (Boston Biochem Cat# E-700, Bio-Techne AG, Zug, Switzerland) was prepared in reaction buffer (50 mM HEPES, 150 mM NaCl, 0.5 mM EDTA, 1 mM DTT, pH 7.5, 0.01% CHAPS). To this solution, a 20 mM or 50 mM inhibitor stock solution in DMSO was added and the mixture was incubated for 15 min at ambient temperature. […] The slope was calculated using Excel and the curve fits were performed using GraphPad Prism7 with a four-parameter least-squares fit. The final reaction conditions contained 0.02 nM SENP1 and 300 nM SUMO1/2 or 3-AMC).

SENP2 = molecular target: T2, SENP2 (Homo sapiens, UniProt Q9HC62); assay: Fluorogenic SENP2 assay, SUMO1-AMC substrate; type: biochemical; conditions: n = 2
T2 construct: Human recombinant catalytic domain expressed in E. coli; purchased Enzo BML-UW9765; host or cells: E. coli
T2 sequence (Q9HC62 396-560 limits assumed): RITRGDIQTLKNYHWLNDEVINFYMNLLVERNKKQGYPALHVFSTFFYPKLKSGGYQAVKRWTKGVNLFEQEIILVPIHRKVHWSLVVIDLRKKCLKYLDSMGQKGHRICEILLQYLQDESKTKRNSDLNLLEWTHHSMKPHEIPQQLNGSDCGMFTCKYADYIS
Experimental: The IC50 measurements were conducted at Reaction Biology Corporation, Malvern, PA, USA, with two replications using 10 concentrations starting at 200 μM with a three-fold dilution. Curve fits were performed where the enzyme activities at the highest concentration of compounds were less than 65%. UCH-L3 I was used as a control inhibitor. To SENP2 (Enzo Cat# BML-UW9765, Human recombinant catalytic domain expressed in E. coli.) in reaction buffer (50 mM HEPES, 150 mM NaCl, 0.5 mM EDTA, 1 mM DTT, pH 7.5, 0.01% CHAPS) was delivered the compound stock solution by acoustic technology (Echo550; nanoliter range) and subsequently incubated for 15 min at ambient temperature. The substrate SUMO1-AMC (R&D Systems Cat# UL-551-050, Lot# 07613314A, Fluorescence labeled full-length SUMO1 protein) was delivered to the well-plate to initiate the reaction. The enzyme activities were monitored (Ex/Em = 355/460 nm) as a time-course measurement of the increase in fluorescence signal from SUMO1-AMC for 90 min at ambient temperature. The data were analyzed by taking the slope (signal/time) of linear portion of measurement. The slope was calculated using Excel and the curve fits were performed using GraphPad Prism7 with a four-parameter least-squares fit. The final reaction conditions contained 0.015 nM SENP2 and 300 nM SUMO1/2 or 3-AMC.

Ataxin-3 = molecular target: T3, Ataxin-3 (Homo sapiens, UniProt P54252); assay: Ataxin-3 activity assay, Ubiquitin-AMC substrate; type: biochemical; conditions: n = 2
T3 construct: purchased BPS 80399
Experimental: IC50 measurements were conducted at Reaction Biology Corporation, Malvern, PA, USA, with two replications using 10 concentrations starting at 200 μM with three-fold dilution. Curve fits were performed where the enzyme activities at the highest concentration of compounds were less than 65%. UCHL1 II was used as a control inhibitor. The procedure was performed analogous to the fluorogenic SENP2 assay described in 3.3.2. using the Ataxin-3 enzyme (BPS Cat# 80399) and Ubiquitin-AMC substrate (Enzo Cat# BML-SE211-0025). The final reaction conditions contained 500 nM Ataxin-3 and 100 nM Ubiquitin-AMC.

SENP1 [2] = molecular target: T1, SENP1; assay: SENP1 endopeptidase activity with proSUMO3 (SDS gel); type: biochemical; conditions: inhibitor 200 µM, proSUMO3 5 µM, 37 °C, 1 h
Experimental: Measurements were performed using six different inhibitor concentrations starting at 200 μM of 11 with three-fold dilution. Human recombinant, His6-SENP1 Catalytic Domain (Boston Biochem Cat# E-700, Bio-Techne AG, Zug, Switzerland) was prepared in reaction buffer (50 mM HEPES, 150 mM NaCl 0.5 mM EDTA, 1 mM DTT, pH 7.5, 0.01% CHAPS) as 555 nM solution. A 20 mM compound DMSO stock-solution (1.1 µL) was added to the freshly prepared 555 nM enzyme solution (98.9 µL). […] Then, 50 µM proSUMO3 (5 µL) was added to the freshly prepared enzyme inhibitor solution (45 µL) and incubated for 60 min at 37 °C and subsequently the reaction was stopped by adding 4 × Laemmli-Buffer (16.7 µL) and denaturing the protein at 100 °C for 30 min. Those solutions (10 µL) were loaded on a casted 15% sodium dodecyl sulfate polyacrylamide gel and separated on a Mini-PROTEAN Tetra Cell (Bio-Rad, Hercules, CA, USA). After SDS-PAGE gel electrophoresis separation, the gels were stained with staining solution Bio-Safe Coomassie Brilliant Blue G-250 (BioRad) for 60 min. De-staining was performed with 40% (v/v) methanol, 10% (v/v) glacial acetic acid, 50% (v/v) Milli-Q water until protein bands became visible.

T3 sequence (P54252 whole entry): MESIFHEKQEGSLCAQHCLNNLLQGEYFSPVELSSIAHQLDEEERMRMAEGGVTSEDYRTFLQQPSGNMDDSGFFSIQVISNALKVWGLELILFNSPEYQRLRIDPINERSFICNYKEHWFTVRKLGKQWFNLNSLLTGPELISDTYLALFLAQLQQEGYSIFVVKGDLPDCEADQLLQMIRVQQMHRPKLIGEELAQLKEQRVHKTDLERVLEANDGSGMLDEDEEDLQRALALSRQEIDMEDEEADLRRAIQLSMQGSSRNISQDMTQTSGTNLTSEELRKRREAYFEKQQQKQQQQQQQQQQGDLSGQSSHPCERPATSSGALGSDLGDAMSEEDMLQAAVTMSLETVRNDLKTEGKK

With O=C(Cn1nnc(-c2ccccc2)n1)N1c2ccccc2NC(=O)C12CCCC2 [Compound 11, 1′-[2-(5-Phenyl-2H-1,2,3,4-tetrazol-2-yl)acetyl]-3′,4′-dihydro-1′H-spiro[cyclopentane-1,2′-quinoxalin]-3′-one] the IC50 (SENP1 [1]; SUMO1-AMC 300 nM, 0.02 nM SENP1, interval in parentheses, read-out: IC50 SENP1) was 8.6 µM, the IC50 (SENP1 [1]; screening library samples, SUMO1-AMC, read-out: IC50 SENP1 of hit molecules) was 5.1 µM and the IC50 (SENP2) was 2.3 µM. For the same compound, the IC50 (Ataxin-3) was 68 µM, the “inhibition of SENP1 endopeptidase activity (proSUMO3 maturation)” value (SENP1 [2]) was “full inhibition” and the melting point was 237 °C (dec.).

Source: article PMC9602571, “Discovery of a Dual SENP1 and SENP2 Inhibitor” (International Journal of Molecular Sciences, 2022)
